According to ChEMBL document CHEMBL1201862, “PubChem BioAssay data set” (2004):
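Values below derive from 48-hour exposures of cells grown in 96-well plates, with endpoints linearly interpolated between the two concentrations bracketing the appropriate inhibition level. At the GI50, growth is halved.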 The source made the active and inactive calls. Cut-off read from the data, not from the text of the source: active = GI50 up to about 1.1 µM and inactive = higher.

Assays:
Assay in all cases: inhibition of tumour cell growth, NCI panel, 48 h
[1] = test system: SK-MEL-2
[2] = test system: U-251
[3] = test system: TK-10
[4] = test system: UACC-257
[5] = test system: HOP-62
[6] = test system: OVCAR-4
[7] = test system: CCRF-CEM
[8] = test system: MOLT-4
[9] = test system: OVCAR-8
[10] = test system: KM12
[11] = test system: UO-31
[12] = test system: K562
[13] = test system: OVCAR-3
[14] = test system: SW-620
[15] = test system: CAKI-1
[16] = test system: SF-295
[17] = test system: SK-MEL-28

Measured: GI50

O=C1c2cccc(O)c2C(=O)c2cccc(O)c21 [ANTHRARUFIN]
inactive: [1] > 100 µM | [2] > 100 µM | [3] > 100 µM | [4] > 100 µM | [5] > 100 µM | [6] > 100 µM | [7] > 100 µM | [8] > 100 µM | [9] > 100 µM | [10] > 100 µM | [11] > 100 µM | [12] > 100 µM | [13] > 100 µM | [14] > 100 µM | [15] > 100 µM | [16] > 100 µM

Cn1ccc(=NS(=O)(=O)c2ccccc2)cc1
inactive: [17] > 100 µM | [1] > 100 µM | [2] > 100 µM | [3] > 100 µM | [4] > 100 µM | [5] > 100 µM | [7] > 100 µM | [8] > 100 µM | [9] > 100 µM | [10] > 100 µM | [11] > 100 µM | [12] > 100 µM | [13] > 100 µM | [14] > 100 µM | [16] > 100 µM

Fc1ccc(C2SCc3nc4ccccc4n32)c(F)c1 (stereo unspecified)
inactive: [1] 71.9 µM | [2] 75.5 µM | [3] 32.5 µM | [4] 34.4 µM | [5] > 100 µM | [6] 95.7 µM | [7] 51.6 µM | [8] 30.5 µM | [9] 79.3 µM | [10] 46.3 µM | [11] 42.3 µM | [12] 34.9 µM | [13] 51.1 µM | [14] > 100 µM | [15] > 100 µM | [16] 39.4 µM

Cc1ccc(O)c(C(=O)CCCC(=O)c2cc(C)ccc2O)c1
inactive: [17] > 100 µM | [1] > 100 µM | [2] 52.4 µM | [3] 48.1 µM | [4] > 100 µM | [5] > 100 µM | [6] 74.5 µM | [7] > 100 µM | [8] > 100 µM | [9] > 100 µM | [10] > 100 µM | [11] 44.9 µM | [12] 35 µM | [14] 30.2 µM | [15] > 100 µM | [16] > 100 µM

COC(=O)/C(C#N)=C1\CCc2ccccc21
inactive: [17] > 100 µM | [1] > 100 µM | [3] > 100 µM | [4] > 100 µM | [6] > 100 µM | [7] > 100 µM | [8] > 100 µM | [9] > 100 µM | [10] > 100 µM | [11] > 100 µM | [12] > 100 µM | [13] > 100 µM | [14] > 100 µM | [15] > 100 µM | [16] > 100 µM

NC1=NS(=O)(=O)Nc2nc(-c3ccccc3)c(-c3ccccc3)nc21
inactive: [17] > 100 µM | [1] > 100 µM | [2] > 100 µM | [3] > 100 µM | [4] > 100 µM | [6] > 100 µM | [7] > 100 µM | [8] > 100 µM | [9] > 100 µM | [10] > 100 µM | [11] > 100 µM | [12] > 100 µM | [13] > 100 µM | [14] > 100 µM | [16] > 100 µM

Nc1nc(O)c2c(ncn2CCO)n1
inactive: [17] > 100 µM | [1] > 100 µM | [2] > 100 µM | [3] > 100 µM | [4] > 100 µM | [5] > 100 µM | [7] > 100 µM | [8] > 100 µM | [9] > 100 µM | [11] > 100 µM | [13] > 100 µM | [14] > 100 µM | [16] > 100 µM
